{"source": "patent US20210355545A1", "about": "“METHODS AND MATERIALS FOR ASSESSING AND TREATING CANCER” (The Johns Hopkins University, priority 2018, published 2021)", "test_system": "ovarian cancer cell lines", "assay": "Cell growth inhibition (viable cell count, trypan blue exclusion) of ovarian cancer cell lines after seven days with inhibitor; logIC50 modelled against alteration status", "format": "cell-based, human", "conditions": "for increased sensitivity to PARP inhibition: from difference of mean log IC50", "description": "To begin to understand the relationship between genomic, epigenetic and expression alterations and response to pathway inhibitors, a screening platform was developed for evaluating cellular proliferation in the presence of candidate therapeutic agents. As an example of the analyses that can be performed and the genotype-phenotype connections that can be obtained, IC20, IC50, and IC80 were measured after seven days of incubation for three inhibitors, GNE-493, BMN673, and MEK162, targeting PI3K, PARP, and MEK proteins, respectively (Table 11). Aggregating the molecular information from multiple platforms to the gene level, analyses was limited to genes that were altered in three or more of the 45 cell lines. Alterations that tend to be mutually exclusive between cell lines were combined, including genes in the PI3K pathway (PIK3CA and PPP2R1A) and the genes in the TGFBR pathway (SMAD3 and SMAD4). As tumors with homologous recombination deficiencies (HRD) have been known to be sensitive to PARP inhibitors, covariates summarizing the extent of genome-wide structural alterations for the PARP inhibitor BMN673 were additionally added. A priori it was hypothesized that most alterations would not modulate response to the targeted inhibitors. Implementing a Bayesian model averaging approach to variable selection as has been considered for other biomarkers (see, e.g., Viallefont et al., 2001 Statistics in Medicine 20:3215-3230; Neto et al., 2014 Pacific Symposium on Biocomputing. Pacific Symposium on Biocomputing: 27-38; and Meisner et al., 2018 Biomarker research 6:3), a positive prior probability that the coefficient for each gene is exactly zero was specified. Given the genes or combination of genes and structural variant summaries, the space of possible single- and multi-variate models for logIC50 was explored by Markov Chain Monte Carlo. Relevant posterior summaries available for each inhibitor include the probability that the regression coefficient is non-zero and the posterior distribution of the regression coefficients.\nCell lines were obtained from multiple sources (Table 1). Cells were plated into 24-well tissue culture plates at a density of 2×10^5 to 5×10^5 cells per well and grown in cell-line-specific medium without or with increasing concentrations of their respective drugs (ranging between […]).\nCells were counted on day 7 using an automated cell viability assay (Vi-CELL XR Cell Viability Analyzer, Beckman Coulter, Fullerton, Calif., USA), a video imaging system that uses an automated trypan blue exclusion protocol. Both adherent and floating viable cells were counted for treatment and control wells. Growth inhibition (GI) was calculated as a percentage of untreated controls. The log of the fractional GI was then plotted against the log of the drug concentration and the IC50 values were interpolated from the resulting linear regression curve fit (CalcuSyn; Biosoft, Ferguson, Mo., USA). Experiments were performed thrice in duplicate for each cell line.\nBayesian model averaging: models of the form\nwere considered where Ci denotes the logIC50 and xi;j an indicator for the alteration status (0 not altered, 1 altered) of feature j in cell line i. The regression coefficient for feature j is the product of a binary indicator zj and a real number hj. A modified g-prior was used for γ such that γj was zero whenever zj was zero. For the vector of γ's with non-zero z's, a multivariate normal prior was used. The space of the possible 2p models was explored using a Gibbs sampler. The binary features comprising the x's included somatic mutations, somatic structural variants (deletions, amplifications, in-frame fusions), methylation, and under- or over-expression. For the PARP inhibitor, the number of intra-chromosomal rearrangements and the HRD score as potential markers for HRD were additionally considered. […]", "data": [{"smiles": "Cn1cnc2c(F)c(Nc3ccc(Br)cc3F)c(C(=O)NOCCO)cc21", "note": "[MEK-162, binimetinib]", "values": [{"measurement": "increased sensitivity", "setting": "cell lines with mutations or deletions in SMAD3 or SMAD4", "value": 89, "unit": "%"}]}, {"smiles": "Cn1ncnc1[C@H]1c2n[nH]c(=O)c3cc(F)cc(c23)N[C@@H]1c1ccc(F)cc1", "note": "[BMN673, talazoparib]", "values": [{"measurement": "increased sensitivity to PARP inhibition", "setting": "cell lines with MYC amplification vs without, 90% CI: 99%-64%", "value": 93, "unit": "%"}, {"measurement": "association with sensitivity to PARP inhibition", "setting": "cell lines with inactivating BRCA1/2 mutations, HRD score, PARP1 expression", "value": "trend towards increased sensitivity to PARP inhibition but were not statistically significant"}, {"measurement": "increased sensitivity to PARP inhibition", "setting": "cell lines with increased number of genome-wide rearrangements vs without, 90% CI, 96%-43%", "value": 86, "unit": "%"}]}, {"smiles": "CC(C)(O)c1cc2nc(-c3cnc(N)nc3)nc(N3CCOCC3)c2s1", "note": "[GNE-493]", "values": [{"measurement": "increased sensitivity", "setting": "cancer cell lines with mutations in PARP1 or PPP2R1A (so in the source)", "value": 66, "unit": "%"}, {"measurement": "difference in mean logIC50 by alteration status", "setting": "cell lines with mutations in PIK3CA or PPP2R1A vs without, 7 days incubation", "value": "−0.63"}, {"measurement": "increased sensitivity to the inhibitor", "setting": "cell lines with mutations in PIK3CA or PPP2R1A vs without, FIG. 6B legend, 90% HPD: 5-72", "value": 48, "unit": "%"}]}]}
